In patent US7994185B2, “Benzene sulfonamide thiazole and oxazole compounds” (Glaxo Smith Kline LLC, priority 2008, dated 2011):
Read-outs that look alike come from different tables or passages of the source.

What was measured:
[1] = system: Human melanoma cancer cells (SK-MEL-28); assay: Cell growth inhibition assay (CellTiter-Glo), SK-MEL-28; format: cell-based
[2] = system: Human colon tumor cells (Colo205); assay: Cell growth inhibition assay (CellTiter-Glo), Colo205; format: cell-based
In short: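 Read-out was CellTiter-Glo luminescence (total ATP as a cell-number surrogate), expressed as % inhibition against DMSO vehicle wells. Before that, cells grown in RPMI/10% FBS were treated for 3 days at 37 °C with ten 1:3-spaced compound concentrations, final DMSO 0.2%.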

[3] = target: T1, BRAFV600E full-length (amino acids 2-766) (Homo sapiens, UniProt P15056, V600E); assay: B-Raf Accelerated MEK ATPase assay (BRAMA); format: biochemical; conditions: categorized
T1 construct: His6-tagged BRAFV600E full-length (amino acids 2-766); His6; made in house; host or cells: baculovirus expression system (insect cells)
T1 sequence (P15056 2-766 V600E): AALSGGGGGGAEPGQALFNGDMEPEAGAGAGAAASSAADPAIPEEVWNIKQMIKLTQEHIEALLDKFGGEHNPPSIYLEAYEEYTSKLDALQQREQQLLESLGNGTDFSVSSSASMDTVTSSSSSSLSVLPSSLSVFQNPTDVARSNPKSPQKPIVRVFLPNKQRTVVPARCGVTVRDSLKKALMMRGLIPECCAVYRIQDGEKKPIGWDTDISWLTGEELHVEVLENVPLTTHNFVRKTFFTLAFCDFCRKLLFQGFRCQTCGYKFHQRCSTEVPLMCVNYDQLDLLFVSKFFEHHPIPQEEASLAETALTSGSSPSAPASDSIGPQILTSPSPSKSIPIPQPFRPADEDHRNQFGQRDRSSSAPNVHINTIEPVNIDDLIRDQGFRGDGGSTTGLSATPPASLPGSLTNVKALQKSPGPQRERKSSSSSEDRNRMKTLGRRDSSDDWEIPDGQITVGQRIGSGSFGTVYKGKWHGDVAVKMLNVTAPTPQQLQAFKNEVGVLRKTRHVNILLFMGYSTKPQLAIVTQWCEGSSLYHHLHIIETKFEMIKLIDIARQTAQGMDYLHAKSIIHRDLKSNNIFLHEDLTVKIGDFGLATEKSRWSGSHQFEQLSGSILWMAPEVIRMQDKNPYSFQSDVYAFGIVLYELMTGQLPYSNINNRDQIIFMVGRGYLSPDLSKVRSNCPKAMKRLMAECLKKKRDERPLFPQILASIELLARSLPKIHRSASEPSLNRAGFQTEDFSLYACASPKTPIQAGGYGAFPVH
In short: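 Coupled-enzyme readout: ADP generated by MEK-mediated ATP hydrolysis, uncoupled from ERK phosphorylation, is linked to NADH oxidation through pyruvate kinase and lactate dehydrogenase.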

[4] = SK-MEL-28, Table 3b, later runs, average for the one or more runs, categorized, read-out: IC50 for SK-MEL-28
[5] = COLO 205, Table 2b, later runs, average for the one or more runs, categorized, read-out: IC50 for Colo205
[6] = B-Raf pIC50, Table 1b, later runs, average pIC50 for the one or more runs
[7] = Table 1b, later runs, average pIC50 for the one or more runs, read-out: B-Raf pIC50 (converted)
[8] = SK-MEL-28, 72 h, Table 3a, 3 days incubation, read-out: Activity in SK-MEL-28 Tumor Cells
[9] = COLO 205, 72 h, Table 2a, 3 days incubation, read-out: Activity in Colo205 Tumor Cells
[10] = B-Raf Activity, Table 1a, highest pIC50 for the one or more runs

Compound | IC50 [1, 4] [nM] | IC50 [2, 5] [nM] | IC50 [3, 6] [nM] | IC50 [3, 7] [nM] | IC50 [1, 8] [nM] | IC50 [2, 9] [nM] | IC50 [3, 10] [nM]
CC(C)(C)c1nc(-c2cccc(NS(=O)(=O)c3ccccc3F)c2F)c(-c2ccncn2)s1 [Example 224, N-{3-[2-(1,1-dimethylethyl)-5-(4-pyrimidinyl)-1,3-thiazol-4-yl]-2-fluorophenyl}-2-fluorobenzenesulfonamide] | < 100 | < 100 | ≤ 3.16 |  |  |  | 
CC(C)(C)c1nc(-c2cccc(NS(=O)(=O)c3c(F)cccc3F)c2F)c(-c2ccnc(CCS(C)(=O)=O)n2)s1 [Example 251, N-[3-(2-(1,1-dimethylethyl)-5-{2-[2-(methylsulfonyl)ethyl]-4-pyrimidinyl}-1,3-thiazol-4-yl)-2-fluorophenyl]-2,6-difluorobenzenesulfonamide] | < 100 | < 100 |  | 3.16 to 31.6 |  |  | 
CC(C)c1nc(-c2ccc(F)c(NS(=O)(=O)c3cc(F)ccc3F)c2)c(-c2ccnc(NC3CCN(C(=O)OC(C)(C)C)CC3)n2)s1 [Example 124] | 100 to 1000 | 100 to 1000 | 31.6 to 1000 |  | 100 to 1000 | 100 to 1000 | < 100
CC(C)c1nc(-c2ccc(F)c(NS(=O)(=O)c3c(F)cccc3F)c2)c(-c2ccnc(NCCN(C)C)n2)s1 [Example 161] | 1000 to 10000 | 1000 to 10000 | 31.6 to 1000 |  | > 1000 | > 1000 | 100 to 1000
CC(C)Nc1nccc(-c2sc(C(C)(C)C)nc2-c2cccc(NS(=O)(=O)c3c(F)cccc3F)c2F)n1 [Example 135] | < 100 | 100 to 1000 | ≤ 3.16 |  | < 100 | 100 to 1000 | < 100
CC(C)c1nc(-c2ccc(F)c(NS(=O)(=O)c3cc(F)ccc3F)c2)c(-c2ccnc(NCCS(C)(=O)=O)n2)s1 [Example 201] | < 100 | < 100 | ≤ 3.16 |  | < 100 | < 100 | < 100
CC(C)c1nc(-c2cccc(NS(=O)(=O)c3nccs3)c2F)c(-c2ccnc(NC3CCN(S(C)(=O)=O)CC3)n2)s1 [Example 40, N-{2-Fluoro-3-[2-(1-methylethyl)-5-(2-{[1-(methylsulfonyl)-4-piperidinyl]amino}-4-pyrimidinyl)-1,3-thiazol-4-yl]phenyl}-1,3-thiazole-2-sulfonamide] | 100 to 1000 | 100 to 1000 | ≤ 3.16 |  | 100 to 1000 | 100 to 1000 | < 100
Cc1nccc(-c2sc(C(C)(C)C)nc2-c2c(F)ccc(NS(=O)(=O)c3cc(F)ccc3F)c2F)n1 [Example 262, N-{3-[2-(1,1-dimethylethyl)-5-(2-methyl-4-pyrimidinyl)-1,3-thiazol-4-yl]-2,4-difluorophenyl}-2,5-difluorobenzenesulfonamide] | < 100 | < 100 | ≤ 3.16 |  |  |  | 
Nc1nccc(-c2sc(C3CCOC3)nc2-c2cccc(NS(=O)(=O)c3c(F)cccc3F)c2F)n1 (centres unmarked) [Example 71, N-{3-[5-(2-Amino-4-pyrimidinyl)-2-(tetrahydro-3-furanyl)-1,3-thiazol-4-yl]-2-fluorophenyl}-2,6-difluorobenzenesulfonamide] | 100 to 1000 | 100 to 1000 |  | 3.16 to 31.6 | 100 to 1000 | 100 to 1000 | < 100
CC(C)c1nc(-c2cccc(NS(=O)(=O)c3cccc(F)c3)c2)c(-c2ccnc(NCC(=O)O)n2)s1 [Example 85, N-{4-[4-(3-{[(3-Fluorophenyl)sulfonyl]amino}phenyl)-2-(1-methylethyl)-1,3-thiazol-5-yl]-2-pyrimidinyl}glycine] |  |  | 31.6 to 1000 |  | > 1000 | > 1000 | 100 to 1000
O=S(=O)(Nc1cccc(-c2nc(N3CCOCC3)sc2-c2ccncn2)c1Cl)c1c(F)cccc1F [Example 27, N-{2-Chloro-3-[2-(4-morpholinyl)-5-(4-pyrimidinyl)-1,3-thiazol-4-yl]phenyl}-2,6-difluorobenzenesulfonamide] | 100 to 1000 | 100 to 1000 |  | 3.16 to 31.6 | 100 to 1000 | 100 to 1000 | < 100
Cc1nccc(-c2sc(N3CCS(=O)(=O)CC3)nc2-c2cccc(NS(=O)(=O)c3cc(F)ccc3F)c2F)n1 [Example 253, N-{3-[2-(1,1-dioxido-4-thiomorpholinyl)-5-(2-methyl-4-pyrimidinyl)-1,3-thiazol-4-yl]-2-fluorophenyl}-2,5-difluorobenzenesulfonamide] | < 100 | < 100 |  | 3.16 to 31.6 |  |  | 
CC(C)Nc1nccc(-c2sc(N3CCOCC3)nc2-c2cccc(NS(=O)(=O)c3c(F)cccc3F)c2F)n1 [Example 136] | 100 to 1000 | 100 to 1000 |  | 3.16 to 31.6 | 100 to 1000 | 100 to 1000 | < 100
CC(C)c1nc(-c2ccc(F)c(NS(=O)(=O)c3cc(F)ccc3F)c2)c(-c2ccnc(NCC3CCNCC3)n2)s1 [Example 128] |  | 1000 to 10000 |  | 3.16 to 31.6 | > 1000 | > 1000 | < 100
CCOCCNc1nccc(-c2sc(C(C)C)nc2-c2ccc(F)c(NS(=O)(=O)c3c(F)cccc3F)c2)n1 [Example 4, N-{5-[5-(2-{[2-(Ethyloxy)ethyl]amino}-4-pyrimidinyl)-2-(1-methylethyl)-1,3-thiazol-4-yl]-2-fluorophenyl}-2,6-difluorobenzenesulfonamide] | 100 to 1000 | 1000 to 10000 | 31.6 to 1000 |  | 100 to 1000 | 100 to 1000 | < 100
CC(C)c1nc(-c2ccc(F)c(NS(=O)(=O)c3cc(F)ccc3F)c2)c(-c2ccnc(NCCCN3CCCC3=O)n2)s1 [Example 184] | < 100 | < 100 |  | 3.16 to 31.6 | < 100 | < 100 | < 100
CC(C)CNc1nccc(-c2sc(C(C)C)nc2-c2cccc(NS(=O)(=O)c3c(F)cccc3F)c2F)n1 [Example 176] | < 100 | < 100 | ≤ 3.16 |  | < 100 | < 100 | < 100
CC(C)c1nc(-c2ccc(F)c(NS(=O)(=O)c3ccco3)c2)c(-c2ccnc(NCCCS(C)(=O)=O)n2)s1 [Example 148] | 1000 to 10000 | 1000 to 10000 |  | 3.16 to 31.6 | > 1000 | > 1000 | < 100
CS(=O)(=O)CCCNc1nccc(-c2sc(N3CCOCC3)nc2-c2cccc(NS(=O)(=O)c3c(F)cccc3F)c2F)n1 [Example 15, 2,6-Difluoro-N-{2-fluoro-3-[5-(2-{[3-(methylsulfonyl)propyl]amino}-4-pyrimidinyl)-2-(4-morpholinyl)-1,3-thiazol-4-yl]phenyl}benzenesulfonamide] | < 100 | < 100 | ≤ 3.16 |  | < 100 | < 100 | < 100
CC(C)CNc1nccc(-c2sc(C(C)(C)C)nc2-c2cccc(NS(=O)(=O)c3c(F)cccc3F)c2Cl)n1 [Example 19, N-[2-Chloro-3-(2-(1,1-dimethylethyl)-5-{2-[(2-methylpropyl)amino]-4-pyrimidinyl}-1,3-thiazol-4-yl)phenyl]-2,6-difluorobenzenesulfonamide] | < 100 | < 100 |  | 3.16 to 31.6 | < 100 | < 100 | < 100
Cc1nccc(-c2sc(C3CCOCC3)nc2-c2cccc(NS(=O)(=O)c3cc(F)ccc3F)c2F)n1 [Example 246, 2,5-difluoro-N-{2-fluoro-3-[5-(2-methyl-4-pyrimidinyl)-2-(tetrahydro-2H-pyran-4-yl)-1,3-thiazol-4-yl]phenyl}benzenesulfonamide] | < 100 | < 100 |  | 3.16 to 31.6 |  |  | 
Nc1nccc(-c2sc(N3CCOCC3)nc2-c2cccc(NS(=O)(=O)c3ccoc3)c2Cl)n1 [Example 266, N-{3-[5-(2-amino-4-pyrimidinyl)-2-(4-morpholinyl)-1,3-thiazol-4-yl]-2-chlorophenyl}-3-furansulfonamide] | < 100 | < 100 | ≤ 3.16 |  |  |  | 
CC(C)(O)CCc1nccc(-c2sc(C(C)(C)C)nc2-c2cccc(NS(=O)(=O)c3cc(F)ccc3F)c2F)n1 [Example 250, N-(3-{2-(1,1-dimethylethyl)-5-[2-(3-hydroxy-3-methylbutyl)-4-pyrimidinyl]-1,3-thiazol-4-yl}-2-fluorophenyl)-2,5-difluorobenzenesulfonamide] | 100 to 1000 | < 100 |  | 3.16 to 31.6 |  |  | 
CNc1nccc(-c2sc(C(C)C)nc2-c2ccc(F)c(NS(=O)(=O)c3c(F)cccc3F)c2)n1 [Example 119] | 1000 to 10000 |  | 31.6 to 1000 |  | > 1000 | > 1000 | 100 to 1000
CC(C)CNc1nccc(-c2sc(C(C)(C)C)nc2-c2cccc(NS(=O)(=O)c3cc(F)ccc3F)c2)n1 [Example 3, N-[3-(2-(1,1-Dimethylethyl)-5-{2-[(2-methylpropyl)amino]-4-pyrimidinyl}-1,3-thiazol-4-yl)phenyl]-2,5-difluorobenzenesulfonamide] | < 100 | < 100 |  | 3.16 to 31.6 | < 100 | < 100 | < 100
